Among the data in BindingDB's records for patent US20250368647 (Glaxosmithkline Intellectual Property Development, 2025) are IC50 values, retold here.

Chain of Sodium channel protein type 10 subunit alpha (Q9Y5Y9 whole entry): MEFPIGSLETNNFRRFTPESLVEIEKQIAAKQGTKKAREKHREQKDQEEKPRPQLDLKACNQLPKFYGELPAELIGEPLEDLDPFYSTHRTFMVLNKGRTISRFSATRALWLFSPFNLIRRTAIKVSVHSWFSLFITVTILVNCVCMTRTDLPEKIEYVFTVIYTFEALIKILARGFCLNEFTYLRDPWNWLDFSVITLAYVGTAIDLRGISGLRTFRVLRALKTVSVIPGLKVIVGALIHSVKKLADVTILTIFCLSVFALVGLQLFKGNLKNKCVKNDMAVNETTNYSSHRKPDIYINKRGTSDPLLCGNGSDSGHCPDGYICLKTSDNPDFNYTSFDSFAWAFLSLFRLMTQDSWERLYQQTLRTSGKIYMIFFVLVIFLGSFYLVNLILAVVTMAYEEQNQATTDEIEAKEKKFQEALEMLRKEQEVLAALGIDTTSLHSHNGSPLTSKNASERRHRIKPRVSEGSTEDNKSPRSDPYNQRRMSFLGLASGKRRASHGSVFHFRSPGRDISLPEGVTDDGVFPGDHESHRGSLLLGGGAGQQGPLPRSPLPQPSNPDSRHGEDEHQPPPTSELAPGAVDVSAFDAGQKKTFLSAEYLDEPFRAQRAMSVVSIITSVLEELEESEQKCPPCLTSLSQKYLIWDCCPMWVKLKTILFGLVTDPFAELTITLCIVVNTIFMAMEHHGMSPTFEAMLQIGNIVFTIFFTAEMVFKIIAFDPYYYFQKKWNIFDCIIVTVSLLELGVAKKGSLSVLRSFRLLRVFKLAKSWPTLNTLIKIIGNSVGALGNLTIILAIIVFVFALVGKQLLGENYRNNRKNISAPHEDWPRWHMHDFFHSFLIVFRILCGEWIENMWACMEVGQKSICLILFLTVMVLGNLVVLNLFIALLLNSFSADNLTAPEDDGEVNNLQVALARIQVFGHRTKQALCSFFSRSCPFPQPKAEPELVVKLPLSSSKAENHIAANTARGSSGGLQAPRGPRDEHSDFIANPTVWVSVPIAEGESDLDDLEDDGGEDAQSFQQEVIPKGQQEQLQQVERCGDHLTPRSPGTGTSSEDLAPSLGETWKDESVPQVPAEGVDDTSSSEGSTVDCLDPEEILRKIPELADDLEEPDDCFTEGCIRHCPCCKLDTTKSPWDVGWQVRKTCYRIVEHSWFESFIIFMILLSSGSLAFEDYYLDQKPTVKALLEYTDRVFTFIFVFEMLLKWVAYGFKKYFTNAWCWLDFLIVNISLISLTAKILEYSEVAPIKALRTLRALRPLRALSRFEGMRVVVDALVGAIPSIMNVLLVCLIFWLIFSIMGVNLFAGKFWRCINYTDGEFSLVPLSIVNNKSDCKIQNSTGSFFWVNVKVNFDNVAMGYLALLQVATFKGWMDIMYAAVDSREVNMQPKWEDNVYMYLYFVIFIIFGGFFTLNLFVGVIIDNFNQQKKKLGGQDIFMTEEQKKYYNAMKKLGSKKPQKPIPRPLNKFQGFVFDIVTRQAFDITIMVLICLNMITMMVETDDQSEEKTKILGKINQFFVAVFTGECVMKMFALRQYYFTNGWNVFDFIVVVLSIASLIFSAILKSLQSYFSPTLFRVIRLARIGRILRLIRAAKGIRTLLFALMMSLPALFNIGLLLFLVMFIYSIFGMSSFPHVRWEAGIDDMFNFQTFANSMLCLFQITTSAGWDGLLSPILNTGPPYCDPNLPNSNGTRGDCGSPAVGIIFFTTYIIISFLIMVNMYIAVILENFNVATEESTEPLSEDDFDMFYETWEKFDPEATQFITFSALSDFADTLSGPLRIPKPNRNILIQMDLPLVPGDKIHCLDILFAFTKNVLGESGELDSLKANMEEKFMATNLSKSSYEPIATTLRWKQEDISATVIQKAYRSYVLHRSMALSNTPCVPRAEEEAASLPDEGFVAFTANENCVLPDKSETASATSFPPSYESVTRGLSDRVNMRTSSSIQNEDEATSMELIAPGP

The assay has as its target Sodium channel protein type 10 subunit alpha (Homo sapiens, UniProt Q9Y5Y9). In words: Pharmacological Assay. From the text:
Utilizing the voltage-clamp mode in the QPatch 48 HTX system a half inactivation state voltage protocol (V1/2) was used to determine pharmacological activity of compounds of the invention at Nav1.8 ion channels. A V1/2 protocol was utilized with the following voltage steps: a holding voltage of −100 mV was established followed by a 20 ms voltage step to 0 mV (P1), followed by an inactivating voltage step at −46 mV for 8 seconds, followed by a step to −100 mV for 20 ms, before a 20 ms step to 0 mV (P2), then returned to the holding voltage of −100 mV. This voltage protocol was repeated at a frequency of every 15 seconds, the current magnitude was quantified at the P2 step throughout the recording. Inhibition of the measured current amplitude with compounds of the invention was analyzed by fitting a 4-6 points dose-response curve allowing determination of the fifty percent inhibition concentration (IC50). P2 currents were normalized according to measurements made at baseline (Baseline, vehicle only), after compound (Input, at each test concentration), and after positive reference compound (FullResponse, to achieve complete block), fit to the following equation:n.ICPD=NormalizedCurrent=(Input-Baseline)(FullResponse-Baseline)[1570]To assess current run-down over the course of the experiment vehicle-only wells were utilized and the normalized current with vehicle-only (n.IVEH) was determined. To correct the compound response for run-down, the currents were corrected according to the following formula:n.IRD_Correct=(n.ICPD-n.IVEH)(1-n.IVEH)
As usually defined, the IC50 is the concentration that inhibits the measured activity by half. A higher IC50 goes with weaker potency. The compound `O=C1c2ccc(C(F)(F)F)cc2N2CN1c1ccc(=O)[nH]c1CCCCCOc1cc(F)ccc12` [US20250368647, Example 19] yielded an IC50 of 0.316 µM.

The compound `O=C1c2cc(C(F)(F)F)ccc2N2CN1c1ccc(=O)[nH]c1CCNCc1cc(F)c(F)cc12` [US20250368647, Example 47] had an IC50 of 0.2 µM.

Compound `O=C1c2cc(F)c(C(F)(F)F)cc2N2CN1c1ccc(=O)[nH]c1CCNCc1cc(OC(F)(F)F)ccc12` [US20250368647, Example 51] returned an IC50 of 0.01 µM.

The compound `O=C1c2cc(F)c(C(F)(F)F)cc2N2CN1c1ccc(=O)[nH]c1CCNCc1c2ccc(OC(F)(F)F)c1F` [US20250368647, Example 52] returned an IC50 of 0.00316 µM.

For the compound `O=C1c2cc(OCC(F)(F)F)ccc2N2CN1c1ccc(=O)[nH]c1CCNCc1cc(F)ccc12` [US20250368647, Example 56], the midpoint of inhibition, the IC50, lay at 1.26 µM.

On to `CC1CCNc2[nH]c(=O)ccc2N2CN(c3cc(C(F)(F)F)c(F)cc3C2=O)c2ccc(F)c(F)c21` (stereo unspecified) [US20250368647, Example 131], for which half-maximal inhibition (IC50) required 0.0158 µM.
